What was measured:
[1] = target: T1, Muscarinic acetylcholine receptor M2 (Homo sapiens, UniProt P08172); experiment: Displacement of [3H]NMS from human muscarinic M2 receptor expressed in CHO-K1 cells after 16 hrs by scintillation proximity assay; type: cell-based
T1 sequence (P08172 whole entry): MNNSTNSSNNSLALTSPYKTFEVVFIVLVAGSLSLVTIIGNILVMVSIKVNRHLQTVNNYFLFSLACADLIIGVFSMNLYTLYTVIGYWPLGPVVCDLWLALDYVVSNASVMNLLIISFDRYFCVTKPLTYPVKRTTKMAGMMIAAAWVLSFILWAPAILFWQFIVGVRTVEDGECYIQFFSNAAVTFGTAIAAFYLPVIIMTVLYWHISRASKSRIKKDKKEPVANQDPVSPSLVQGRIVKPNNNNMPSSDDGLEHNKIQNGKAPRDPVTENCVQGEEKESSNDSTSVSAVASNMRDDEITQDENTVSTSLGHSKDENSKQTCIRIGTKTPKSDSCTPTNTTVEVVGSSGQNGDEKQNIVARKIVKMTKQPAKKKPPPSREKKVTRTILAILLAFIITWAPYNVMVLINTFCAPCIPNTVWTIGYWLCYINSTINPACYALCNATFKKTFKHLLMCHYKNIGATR

[2] = target: T2, Muscarinic acetylcholine receptor M3 (Homo sapiens, UniProt P20309); experiment: Displacement of [3H]NMS from human muscarinic M3 receptor expressed in CHO-K1 cells after 16 hrs by scintillation proximity assay; type: cell-based
Target sequence in this assay (P20309 whole entry): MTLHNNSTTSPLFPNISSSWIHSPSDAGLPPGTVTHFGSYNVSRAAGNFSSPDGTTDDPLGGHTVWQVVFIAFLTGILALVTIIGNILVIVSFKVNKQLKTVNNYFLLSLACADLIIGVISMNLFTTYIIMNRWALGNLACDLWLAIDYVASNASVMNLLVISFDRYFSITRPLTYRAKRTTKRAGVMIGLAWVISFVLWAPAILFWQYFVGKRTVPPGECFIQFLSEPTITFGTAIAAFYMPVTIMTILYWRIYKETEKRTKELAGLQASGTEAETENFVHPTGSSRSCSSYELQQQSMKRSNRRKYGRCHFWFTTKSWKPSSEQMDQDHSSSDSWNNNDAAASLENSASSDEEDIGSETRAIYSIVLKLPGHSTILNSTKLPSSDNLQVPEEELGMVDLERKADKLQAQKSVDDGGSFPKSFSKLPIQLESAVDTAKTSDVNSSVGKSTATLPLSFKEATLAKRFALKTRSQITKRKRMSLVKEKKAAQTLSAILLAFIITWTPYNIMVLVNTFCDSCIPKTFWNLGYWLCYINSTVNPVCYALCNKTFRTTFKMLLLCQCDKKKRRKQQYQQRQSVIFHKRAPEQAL

[3] = target: T3, Muscarinic acetylcholine receptor M5 (Homo sapiens, UniProt P08912); experiment: Displacement of [3H]NMS from human muscarinic M5 receptor expressed in CHO-K1 cells after 16 hrs by scintillation proximity assay; type: cell-based
T3 sequence (P08912 whole entry): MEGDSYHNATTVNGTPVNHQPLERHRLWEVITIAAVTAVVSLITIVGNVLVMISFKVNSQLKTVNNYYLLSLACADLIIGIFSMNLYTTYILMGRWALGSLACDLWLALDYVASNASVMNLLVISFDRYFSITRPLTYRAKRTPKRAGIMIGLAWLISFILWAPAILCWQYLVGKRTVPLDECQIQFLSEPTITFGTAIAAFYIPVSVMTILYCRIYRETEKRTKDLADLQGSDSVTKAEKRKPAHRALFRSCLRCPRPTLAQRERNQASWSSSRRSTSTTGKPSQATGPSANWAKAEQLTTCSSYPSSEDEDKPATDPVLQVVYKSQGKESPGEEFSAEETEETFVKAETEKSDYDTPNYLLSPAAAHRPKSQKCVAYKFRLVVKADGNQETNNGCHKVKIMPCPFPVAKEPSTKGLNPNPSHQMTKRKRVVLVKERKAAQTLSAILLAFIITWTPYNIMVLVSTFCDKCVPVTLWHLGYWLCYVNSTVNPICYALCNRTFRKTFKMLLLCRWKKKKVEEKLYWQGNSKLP

[4] = target: T4, Muscarinic acetylcholine receptor M4 (Homo sapiens, UniProt P08173); experiment: Displacement of [3H]NMS from human muscarinic M4 receptor expressed in CHO-K1 cells after 16 hrs by scintillation proximity assay; type: cell-based
T4 sequence (P08173 whole entry): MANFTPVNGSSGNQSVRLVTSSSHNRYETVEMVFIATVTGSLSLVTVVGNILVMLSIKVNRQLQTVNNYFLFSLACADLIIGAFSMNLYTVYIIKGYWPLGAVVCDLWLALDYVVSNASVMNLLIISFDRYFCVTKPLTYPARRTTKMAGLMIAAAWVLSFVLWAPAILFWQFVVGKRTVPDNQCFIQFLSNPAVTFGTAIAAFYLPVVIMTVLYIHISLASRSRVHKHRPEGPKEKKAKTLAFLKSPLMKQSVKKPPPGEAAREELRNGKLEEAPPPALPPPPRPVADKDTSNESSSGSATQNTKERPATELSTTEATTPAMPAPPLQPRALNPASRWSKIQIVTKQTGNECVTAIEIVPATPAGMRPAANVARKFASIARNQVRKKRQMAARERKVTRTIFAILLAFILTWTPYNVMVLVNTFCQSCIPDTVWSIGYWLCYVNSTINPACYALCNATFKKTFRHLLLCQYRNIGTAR

[5] = Clearance in human microsomes; type: ADME, Microsome
[6] = test system: Hepatocyte; experiment: Clearance in rat hepatocytes; type: ADME, cell-based, Liver
[7] = Lipophilicity, log D of the compound; type: physicochemical; conditions: octanol/water
[8] = target: T5, Muscarinic acetylcholine receptor M1 (Homo sapiens, UniProt P11229); experiment: Displacement of [3H]NMS from human muscarinic M1 receptor expressed in CHO-K1 cells after 16 hrs by scintillation proximity assay; type: cell-based
T5 sequence (P11229 whole entry): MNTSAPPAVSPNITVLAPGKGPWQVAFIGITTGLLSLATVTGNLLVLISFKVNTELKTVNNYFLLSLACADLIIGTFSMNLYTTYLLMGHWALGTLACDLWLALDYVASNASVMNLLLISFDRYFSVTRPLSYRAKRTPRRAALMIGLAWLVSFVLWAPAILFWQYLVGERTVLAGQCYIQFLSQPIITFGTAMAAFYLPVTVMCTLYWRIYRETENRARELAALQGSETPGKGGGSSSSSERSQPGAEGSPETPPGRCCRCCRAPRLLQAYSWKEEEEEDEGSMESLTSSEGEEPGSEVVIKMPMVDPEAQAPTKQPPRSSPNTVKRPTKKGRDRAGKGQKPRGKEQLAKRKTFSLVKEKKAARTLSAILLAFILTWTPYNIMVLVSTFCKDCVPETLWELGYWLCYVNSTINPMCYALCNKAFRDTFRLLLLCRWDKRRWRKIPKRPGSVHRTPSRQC

[9] = target: T2, Muscarinic acetylcholine receptor M3; experiment: Displacement of [3H]NMS from human muscarinic M3 receptor expressed in CHO-K1 cells at 1 uM after 16 hrs by scintillation proximity assay; type: cell-based
Target sequence in this assay (P20309 whole entry, looked up): as the sequence (P20309 whole entry) above

Question: What does the source list for `Cc1nc(C(=O)N2CCOC3(CCN(Cc4cccc(Cl)c4)CC3)C2)cs1`?
Answer: IC50 [1]: 1.26 nM; IC50 [2]: 1.26 nM

Question: Which IC50 [1] does the source give for `Cc1nc(C(=O)N2CCOC3(CCN(Cc4ccccc4Cl)CC3)C2)cs1` here?
Answer: The IC50 was 3.16 nM.

Question: What about the IC50 [2] of the same molecule?
Answer: Its IC50 is 7.94 nM.

Question: With `Cc1nc(C(=O)N2CCCC3(CCN(Cc4ccccc4)CC3)C2)cs1` as the molecule, how does the IC50 [1] read?
Answer: Its IC50 is > 1000 nM.

Question: And the IC50 [2]?
Answer: The IC50 was > 1000 nM.

Question: For `O=C(c1ccc(CO)o1)N1CCOC2(CCN(Cc3ccc(Cl)cc3)CC2)C1`, which IC50 [1] is on record?
Answer: The IC50 was 126 nM.

Question: What about the IC50 [2] of the same molecule?
Answer: The IC50 was 100 nM.

Question: Which results are given for `O=C(c1ccoc1)N1CCOC2(CCN(Cc3ccc(Cl)cc3)CC2)C1`?
Answer: IC50 [1]: 63.1 nM; IC50 [2]: 126 nM

Question: Which IC50 [1] does the source give for `O=C(c1ccon1)N1CCOC2(CCN(Cc3ccc(Cl)cc3)CC2)C1` here?
Answer: Its IC50 is 79.4 nM.

Question: What about the IC50 [2] of the same molecule?
Answer: Its IC50 is 398 nM.

Question: Which IC50 [1] does the source give for `O=C(c1ccco1)N1CCC2(CCN(Cc3ccccc3)CC2)CC1` here?
Answer: Its IC50 is 79.4 nM.

Question: And the IC50 [2]?
Answer: Its IC50 is > 1000 nM.

Question: With `O=C(c1ccco1)N1CCOC2(CCN(Cc3ccc(Cl)cc3)CC2)C1` as the molecule, how does the IC50 [1] read?
Answer: The IC50 was 25.1 nM.

Question: What about the IC50 [2] of the same molecule?
Answer: Its IC50 is 63.1 nM.

Question: With `C[N+]1(C)[C@@H]2C[C@@H](OC(=O)C(O)(c3cccs3)c3cccs3)C[C@H]1[C@@H]1O[C@@H]12` [TIOTROPIUM BROMIDE] as the molecule, how does the IC50 [3] read?
Answer: The IC50 was 0.1 nM.

Question: And the IC50 [4]?
Answer: Its IC50 is 0.0398 nM.

Question: Which results are given for `CC(C)c1nc(C(=O)N2CCOC3(CCN(Cc4ccc(Cl)cc4)CC3)C2)cs1`?
Answer: IC50 [1]: 31.6 nM; IC50 [2]: 15.8 nM

Question: For `CC(C)c1nc(C(=O)N2CCOC3(CCN(Cc4ccccc4)CC3)C2)cs1`, which IC50 [1] is on record?
Answer: The IC50 was 15.8 nM.

Question: And the IC50 [2]?
Answer: The IC50 was 3.98 nM.

Question: Which results are given for `CCOc1ccccc1C(=O)N1CCC2(CCN(Cc3ccccc3)CC2)CC1`?
Answer: IC50 [1]: 79.4 nM; IC50 [2]: 794 nM

Question: With `CC(C)(C)c1nc(C(=O)N2CCOC3(CCN(Cc4ccc(Cl)cc4)CC3)C2)cs1` as the molecule, how does the IC50 [1] read?
Answer: The IC50 was > 1000 nM.

Question: What about the IC50 [2] of the same molecule?
Answer: The IC50 was > 1000 nM.

Question: For `Cc1nc(C(=O)N2CCOC3(CCN(Cc4ccc(Cl)cc4)CC3)C2)cs1`, which IC50 [1] is on record?
Answer: The IC50 was 3.16 nM.

Question: What about the IC50 [2] of the same molecule?
Answer: Its IC50 is 10 nM.

Question: And the microsomal CLint [5]?
Answer: The microsomal CLint was 11 µL/min/mg.

Question: What about the CL [6] of the same molecule?
Answer: The CL was 47 µL/min/mg.

Question: What about the logD [7] of the same molecule?
Answer: The logD was 2.2.

Question: With `CC(C)c1nc(C(=O)N2CCOC3(CCN(Cc4ccccc4Cl)CC3)C2)cs1` as the molecule, how does the IC50 [1] read?
Answer: Its IC50 is 25.1 nM.

Question: And the IC50 [2]?
Answer: The IC50 was 20 nM.

Question: For `O=C(O[C@H]1C[N+]2(CCCOc3ccccc3)CCC1CC2)C(O)(c1cccs1)c1cccs1` [ACLIDINIUM BROMIDE], which IC50 [3] is on record?
Answer: Its IC50 is 0.158 nM.

Question: And the IC50 [8]?
Answer: The IC50 was 0.1 nM.

Question: And the IC50 [4]?
Answer: Its IC50 is 0.2 nM.

Question: For `O=C(c1ccccc1)N1CCOC2(CCN(Cc3ccc(Cl)cc3)CC2)C1`, which IC50 [1] is on record?
Answer: Its IC50 is 126 nM.

Question: And the IC50 [2]?
Answer: Its IC50 is 251 nM.

Question: Which IC50 [1] does the source give for `O=C(c1cnsn1)N1CCOC2(CCN(Cc3ccc(Cl)cc3)CC2)C1` here?
Answer: Its IC50 is 39.8 nM.

Question: What about the IC50 [2] of the same molecule?
Answer: Its IC50 is 200 nM.

Question: For `O=C(c1ccsc1)N1CCC2(CCN(Cc3ccccc3)CC2)CC1`, which IC50 [1] is on record?
Answer: Its IC50 is 15.8 nM.

Question: What about the IC50 [2] of the same molecule?
Answer: The IC50 was 316 nM.

Question: What does the source list for `Cc1ccc(C(=O)N2CCOC3(CCN(Cc4ccc(Cl)cc4)CC3)C2)o1`?
Answer: IC50 [1]: 50.1 nM; IC50 [2]: 50.1 nM

Question: What does the source list for `Cc1ccccc1CN1CCC2(CC1)CN(C(=O)c1csc(C(C)C)n1)CCO2`?
Answer: IC50 [1]: 794 nM; IC50 [2]: 398 nM

Question: With `O=C(c1ccc2occc2c1)N1CCOC2(CCN(Cc3ccc(Cl)cc3)CC2)C1` as the molecule, how does the IC50 [1] read?
Answer: The IC50 was 31.6 nM.

Question: And the IC50 [2]?
Answer: Its IC50 is 31.6 nM.

Question: With `CC(C)c1nc(C(=O)N2CCOC3(CCN(Cc4cccc(Cl)c4)CC3)C2)cs1` as the molecule, how does the IC50 [1] read?
Answer: Its IC50 is 10 nM.

Question: And the IC50 [2]?
Answer: The IC50 was 5.01 nM.

Question: What does the source list for `O=C(c1ncccn1)N1CCOC2(CCN(Cc3ccc(Cl)cc3)CC2)C1`?
Answer: IC50 [1]: 126 nM; IC50 [2]: 398 nM

Question: With `O=C(c1cccs1)N1CCOC2(CCN(Cc3ccc(Cl)cc3)CC2)C1` as the molecule, how does the IC50 [1] read?
Answer: The IC50 was 20 nM.

Question: And the IC50 [2]?
Answer: Its IC50 is 63.1 nM.

Question: Which results are given for `O=C(c1cscn1)N1CCOC2(CCN(Cc3ccc(Cl)cc3)CC2)C1`?
Answer: IC50 [1]: 50.1 nM; IC50 [2]: 158 nM

Question: For `Cc1nc(C(=O)N2CCCC3(CCN(Cc4ccc(Cl)cc4)CC3)C2)cs1`, which IC50 [1] is on record?
Answer: Its IC50 is > 1000 nM.

Question: What about the IC50 [2] of the same molecule?
Answer: The IC50 was > 1000 nM.

Question: What does the source list for `O=C(c1ccccc1)N1CCC2(CCN(Cc3cccc(Cl)c3)CC2)CC1`?
Answer: IC50 [1]: 3.98 nM; IC50 [2]: 100 nM

Question: Which IC50 [1] does the source give for `CCc1nc(C(=O)N2CCOC3(CCN(Cc4ccc(Cl)cc4)CC3)C2)cs1` here?
Answer: The IC50 was 12.6 nM.

Question: What about the IC50 [2] of the same molecule?
Answer: The IC50 was 15.8 nM.

Question: What does the source list for `O=C(c1cccnc1)N1CCC2(CCN(Cc3ccccc3)CC2)CC1`?
Answer: IC50 [1]: 79.4 nM; IC50 [2]: > 1000 nM

Question: Which IC50 [2] does the source give for `O=C(c1cccnc1)N1CCOC2(CCN(Cc3ccc(Cl)cc3)CC2)C1` here?
Answer: Its IC50 is > 1000 nM.

Question: With `O=C(c1ncccn1)N1CCC2(CCN(Cc3ccccc3)CC2)CC1` as the molecule, how does the IC50 [1] read?
Answer: The IC50 was 251 nM.

Question: And the inhibition [9]?
Answer: Its inhibition is < 50%.

Question: Which IC50 [1] does the source give for `O=C(c1ccccc1)N1CCC2(CCN(Cc3ccccc3)CC2)CC1` here?
Answer: Its IC50 is 6.31 nM.

Question: What about the IC50 [2] of the same molecule?
Answer: Its IC50 is 126 nM.

Question: What does the source list for `Cc1cccc(CN2CCC3(CC2)CCN(C(=O)c2ccccc2)CC3)c1`?
Answer: IC50 [1]: 2.51 nM; IC50 [2]: 100 nM
